# Source: ChEMBL document CHEMBL3351722, “Optimized inhibitors of soluble epoxide hydrolase improve in vitro target residence time and in vivo efficacy” (J Med Chem, 2014)
# What was measured:
# [1] = Lipophilicity, log P of the compound by shake-flask method; type: physicochemical; conditions: octanol/water
# [2] = (§1) AUC in Swiss Webster mouse at 0.3 mg/kg, po administered as cassette dosing; type: ADME, organism-based, Plasma; design: dose 0.3 mg/kg, route oral; conditions: Swiss Webster, plasma
# [3] = (§2) Half life in Swiss Webster mouse at 0.3 mg/kg, po administered as cassette dosing; type: ADME, organism-based; design: dose 0.3 mg/kg, route oral; conditions: Swiss Webster, in vivo
# in vivo [4] = conditions: Swiss Webster, mouse, po, 0.3 mg/kg
# [5] = (§3) Cmax in Swiss Webster mouse at 0.3 mg/kg, po administered as cassette dosing; type: ADME, organism-based; design: dose 0.3 mg/kg, route oral; conditions: Swiss Webster, in vivo
# [6] = AUC in Sprague-Dawley rat at 0.3 mg/kg, po administered as cassette dosing; type: ADME, organism-based; design: dose 0.3 mg/kg, route oral; conditions: plasma
# [7] = Cmax in Sprague-Dawley rat at 0.3 mg/kg, po administered as cassette dosing; type: ADME, organism-based; design: dose 0.3 mg/kg, route oral; conditions: in vivo
# in vivo [8] = conditions: Sprague-Dawley, rat, po, 0.3 mg/kg
# [9] = Half life in Sprague-Dawley rat at 0.3 mg/kg, po administered as cassette dosing; type: ADME, organism-based; design: dose 0.3 mg/kg, route oral; conditions: in vivo
# Mus musculus [10] = experiment: as §3; type: ADME, organism-based; design: dose 0.3 mg/kg, route oral; conditions: in vivo
# Mus musculus [11] = experiment: as §1; type: ADME, organism-based, Plasma; design: dose 0.3 mg/kg, route oral; conditions: in vivo
# Mus musculus [12] = experiment: as §2; type: ADME, organism-based; design: dose 0.3 mg/kg, route oral; conditions: in vivo
SMILES,logP [1],AUC [2] [µM·h],half-life [3] [h],Tmax (in vivo [4]) [h],Cmax [5] [µM],also measured
CC(C)CC(=O)N1CCC(NC(=O)Nc2ccc(C(F)(F)F)cc2)CC1,3.86,–,–,–,–,–
CCC(C)C(=O)N1CCC(NC(=O)Nc2ccc(C(F)(F)F)cc2)CC1 (stereo not drawn),3.83,3.29,6,0.5,0.32,–
O=C(Nc1ccc(C(F)(F)F)cc1)NC1CCN(C(=O)CC(F)(F)F)CC1,3.99,8.85,15.4,8,0.33,–
CCC(C)C(=O)N1CCC(NC(=O)Nc2ccc(OC(F)(F)F)cc2)CC1 (stereo not drawn),3.98,3.3,6,2,0.235,–
CC(C)C(=O)N1CCC(NC(=O)Nc2ccc(OC(F)(F)F)cc2)CC1,–,19.5,9,5,0.9,AUC [6]: 12 µM·h; Cmax [7]: 0.89 µM; Tmax (in vivo [8]): 1 h; half-life [9]: 3.5 h
CCC(C)C(=O)N1CCC(NC(=O)Nc2ccc(C(C)C)cc2)CC1 (stereo not drawn),4.21,0.2,–,0.5,0.09,–
CCS(=O)(=O)N1CCC(NC(=O)Nc2ccc(C(F)(F)F)cc2)CC1,3.08,–,–,–,–,–
O=C(Nc1ccc(C(F)(C(F)(F)F)C(F)(F)F)cc1)NC1CCN(C(=O)CC(F)(F)F)CC1,4.89,9.6,18.9,8,0.365,–
O=C(Nc1ccc(C(F)(F)F)cc1)NC1CCN(S(=O)(=O)C2CC2)CC1,3.39,–,–,–,–,–
CCCCS(=O)(=O)N1CCC(NC(=O)Nc2ccc(OC(F)(F)F)cc2)CC1,4.13,0.22,2,1.2,0.065,–
O=C(Nc1ccc(C(F)(F)F)cc1)NC1CCN(C(=O)CCC(F)(F)F)CC1,3.66,–,–,–,–,–
CC(=O)N1CCC(NC(=O)Nc2ccc(C(F)(F)F)cc2)CC1,2.74,–,–,–,–,–
CC(C)C(=O)N1CCC(NC(=O)Nc2ccc(C(F)(F)F)cc2)CC1,–,19.7,6,4,1.16,AUC [6]: 7.3 µM·h; Cmax [7]: 0.51 µM; Tmax (in vivo [8]): 4 h; half-life [9]: 5.4 h
CS(=O)(=O)N1CCC(NC(=O)Nc2ccc(C(F)(F)F)cc2)CC1,2.94,4.67,22,8,0.13,–
CCC(C)C(=O)N1CCC(NC(=O)Nc2ccc(C(F)(C(F)(F)F)C(F)(F)F)cc2)CC1 (stereo not drawn),4.96,1.6,4.5,2.5,0.135,–
CS(=O)(=O)N1CCC(NC(=O)Nc2ccc(OC(F)(F)F)cc2)CC1,–,5.3,15,–,–,Cmax (Mus musculus [10]): 0.37 µM
O=C(Nc1ccc(C(F)(F)F)cc1)NC1CCN(C(=O)C2CC2)CC1,3.18,24.6,17,6,0.96,–
CC[C@H](C)C(=O)N1CCC(NC(=O)Nc2ccc(C(F)(F)F)cc2)CC1,3.84,4.94,5,1,0.435,AUC [6]: 5.72 µM·h; Cmax [7]: 0.79 µM; Tmax (in vivo [8]): 1 h; half-life [9]: 4.9 h
CCC(C)C(=O)N1CCC(NC(=O)Nc2ccc(C(C)(C)C)cc2)CC1 (stereo not drawn),5.12,–,–,–,–,–
CC[C@H](C)C(=O)N1CCC(NC(=O)Nc2ccc(OC(F)(F)F)cc2)CC1,3.97,2.53,7.7,4,0.195,AUC [6]: 2.59 µM·h; Cmax [7]: 0.297 µM; Tmax (in vivo [8]): 4 h; half-life [9]: 4.2 h
O=C(Nc1ccc(C(F)(F)F)cc1)NC1CCN(S(=O)(=O)CC(F)(F)F)CC1,3.42,4.27,25,8,0.1,–
CC(C)S(=O)(=O)N1CCC(NC(=O)Nc2ccc(C(F)(F)F)cc2)CC1,3.39,–,–,–,–,–
CCCCS(=O)(=O)N1CCC(NC(=O)Nc2ccc(C(F)(F)F)cc2)CC1,3.95,0.245,7.4,1,0.03,–
CCC(C)C(=O)N1CCC(NC(=O)NC2CCCCCC2)CC1 (stereo not drawn),–,0.075,8.4,0.5,0.003,–
CCC(C)C(=O)N1CCC(NC(=O)N[C@H]2CC[C@H](CC)CC2)CC1 (stereo partly drawn),–,–,–,–,0.005,AUC (Mus musculus [11]): 0.037 µM·h; t1/2 (Mus musculus [12]): 12 h
CC(=O)N1CCC(NC(=O)NC23CC4CC(CC(C4)C2)C3)CC1 [AR9281],–,0.183,–,–,0.03,–
CCCS(=O)(=O)N1CCC(NC(=O)Nc2ccc(C(F)(F)F)cc2)CC1,3.39,–,–,–,–,–
